Holding throughout (format): biochemical
Experiment [1] concerns FP-sensitive SHs in the mouse brain membrane proteome. In words: Gel-based competitive ABPP in vitro, mouse brain membrane proteome, anti-targets. The settings on record: for Anti-target(s) 0.1 μM: SHs with at least 50% inhibition at 0.1 μM compound; for Anti-target(s) 1 μM: SHs with at least 50% inhibition at 1 μM compound; for Anti-target(s) 10 μM: SHs with at least 50% inhibition at 10 μM compound; for Anti-target(s) 100 μM: SHs with at least 50% inhibition at 100 μM compound. As to the method: (§1) Assay Overview: The purpose of this assay was to determine whether test compounds can inhibit LYPLA1 and LYPLA2 in a complex proteomic lysate and to assess anti-target inhibition using a competitive activity-based proteomic profiling (ABPP) assay. In this assay, a complex proteome endogenously expressing LYPLA1/2 was incubated with test compound followed by reaction with a rhodamine-conjugated fluorophosphonate (FP-Rh) serine-hydrolase specific activity-based probe. The reaction products were separated by SDS-PAGE and visualized in-gel using a flatbed fluorescence scanner. The percentage activity remaining was determined by measuring the integrated optical density of the bands. […] Percent inhibition was calculated relative to a DMSO (no compound) control.
(§2) Protocol Summary: Mouse brain membrane proteome (50 μL reaction volume, 1 mg/mL in DPBS) was treated with 0.1-100 μM test compound (1 μL of a 50× stock in DMSO) for 30 minutes at 37° C. FP-Rh (1 μL of 50× stock in DMSO, Thermo #88318) was added to a final concentration of 2 μM. The reactions were incubated for 30 minutes at 25° C., quenched with 16 μL 4×SDS-PAGE loading buffer (reducing), separated by SDS-PAGE and visualized by in-gel fluorescent scanning. The percentage activity remaining was determined by measuring the integrated optical density of the bands relative to a DMSO-only (no compound) control. Assay Cutoff: Compounds with ≥50% inhibition of targets at 1 μM test compound concentration were considered active.
(§3) N-Hydroxy bicyclic hydantoin carbamates (Compounds 1-20) listed in Table 1 were subjected to gel-based competitive ABPP screening to assess SH reactivity against more than 20 FP-sensitive SHs visible by 1D SDS-PAGE separation and fluorescent detection in the mouse brain proteome (see FIG. 1). […] Compound treatment ([…], 30 minutes) was followed by labeling with SH-specific ABPP probe FP-Rh (2 μM, 30 minutes), 1D-SDS-PAGE, and in-gel fluorescent visualization of FP-labeled proteins. Assignment of LYPLA1/2 bands was based on correlation of molecular weights, expression and inhibition profiles with LC-MS/MS data and recombinant enzyme expression. Proteins were listed as anti-targets if at least 50% inhibition was observed as quantified relative to the DMSO control.
(§4) Compounds 1-20 were subjected to gel-based competitive ABPP profiling to assess potency and selectivity against several dozen FP-sensitive SHs in the mouse brain membrane proteome, which endogenously expresses LYPLA1 and LYPLA2, as well a diversity of potential SH anti-targets. Compounds were tested at 100 μM, 10 μM, 1 μM, and/or 0.1 μM compound concentration.

The target in the next experiment is T1, LYPLA2 (Mus musculus, UniProt Q9WTL7).
T1 construct: a complex proteome endogenously expressing LYPLA1/2 was incubated with test compound; from tissue; host or cells: mouse brain, membrane fraction
In words: Gel-based competitive ABPP in vitro, mouse brain membrane proteome. To be noted: 30 min, one replicate; for inhibition at 0.1 µM: 0.1 μM compound, read-out: LYPLA2 % INH 0.1 μM; for inhibition at 1 µM: 1 μM compound, read-out: LYPLA2 % INH 1 μM; for inhibition at 10 µM: 10 μM compound, read-out: LYPLA2 % INH 10 μM; for inhibition at 100 µM: 100 μM compound, read-out: LYPLA2 % INH 100 μM. As to the method: as §1, §2, §3, §4

The next experiment deals with T2, LYPLA1 (Mus musculus, UniProt P97823).
T2 construct: a complex proteome endogenously expressing LYPLA1/2 was incubated with test compound; from tissue; host or cells: mouse brain, membrane fraction
The description is as above. To be noted: 30 min, one replicate; for inhibition at 0.1 µM: 0.1 μM compound, read-out: LYPLA1 % INH 0.1 μM; for inhibition at 1 µM: 1 μM compound, read-out: LYPLA1 % INH 1 μM; for inhibition at 10 µM: 10 μM compound, read-out: LYPLA1 % INH 10 μM; for inhibition at 100 µM: 100 μM compound, read-out: LYPLA1 % INH 100 μM. As to the method: as §1, §2, §3, §4

Entries after “also recorded” stand apart in the source; their conditions may differ.

T1 sequence (Q9WTL7 whole entry): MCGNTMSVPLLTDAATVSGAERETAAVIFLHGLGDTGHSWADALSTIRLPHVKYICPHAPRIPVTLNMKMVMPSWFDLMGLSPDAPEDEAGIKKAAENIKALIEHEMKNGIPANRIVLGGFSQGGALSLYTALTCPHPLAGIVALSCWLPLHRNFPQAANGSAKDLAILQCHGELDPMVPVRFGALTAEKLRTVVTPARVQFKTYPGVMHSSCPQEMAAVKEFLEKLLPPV
T2 sequence (P97823 whole entry): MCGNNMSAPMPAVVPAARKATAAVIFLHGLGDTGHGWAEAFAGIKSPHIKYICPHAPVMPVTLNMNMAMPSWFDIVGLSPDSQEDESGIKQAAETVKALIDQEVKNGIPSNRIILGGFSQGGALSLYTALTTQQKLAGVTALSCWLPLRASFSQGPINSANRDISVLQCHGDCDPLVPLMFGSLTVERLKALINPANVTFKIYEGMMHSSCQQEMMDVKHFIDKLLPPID

Consider `O=C(Cc1ccccc1)N1CCN2C(=O)N(OC(=O)N3CCC(CCc4ccc(Cl)cc4)CC3)C(=O)C2C1` (stereo not drawn) [Compound 6, 1,3-dioxo-7-(2-phenylacetyl)hexahydroimidazo[1,5-a]pyrazin-2(3H)-yl 4-(4-chlorophenethyl)piperidine-1-carboxylate], for which, in experiment [1], the “Anti-target(s) 0.1 μM” value is given as “ABHD6”, the “Anti-target(s) 1 μM” value is “FAAH,; also recorded: ABHD6”, the “Anti-target(s) 10 μM” value is on record as “FAAH,; also recorded: MAGL,; also recorded: ABHD6” and the “Anti-target(s) 100 μM” value was “FAAH,; also recorded: MAGL,; also recorded: ABHD6”. At LYPLA2, the inhibition at 0.1 µM was determined as 25%, the inhibition at 1 µM was found to be 95%, the inhibition at 10 µM stood at 100% and the inhibition at 100 µM was 100%. On LYPLA1, the inhibition at 0.1 µM was 25%, the inhibition at 1 µM came to 95%, the inhibition at 10 µM amounted to 100% and the inhibition at 100 µM came to 100%.

In the case of `Cc1ccc(C(=O)N2CCN3C(=O)N(OC(=O)N4CCC(CCc5ccc(Cl)cc5)CC4)C(=O)C3C2)cc1` (stereo not drawn) [Compound 8, 7-(4-methylbenzoyl)-1,3-dioxohexahydroimidazo[1,5-a]pyrazin-2(3H)-yl 4-(4-chlorophenethyl)piperidine-1-carboxylate], in experiment [1], the “Anti-target(s) 1 μM” value is given as “ABHD6”, the “Anti-target(s) 10 μM” value is listed as “FAAH,; also recorded: ABHD12,; also recorded: ABHD6” and the “Anti-target(s) 100 μM” value is “FAAH,; also recorded: ABHD12,; also recorded: MAGL,; also recorded: ABHD6”. Moreover, at LYPLA2, the inhibition at 1 µM was found to be 75%, the inhibition at 10 µM was determined as 100% and the inhibition at 100 µM is 100%. Further, at LYPLA1, the inhibition at 1 µM turned out to be 75%, the inhibition at 10 µM stood at 100% and the inhibition at 100 µM stood at 100%.

Consider `O=C(ON1C(=O)C2CN(C(=O)c3ccc(F)c([N+](=O)[O-])c3)CCN2C1=O)N1CCC(CCc2ccc(Cl)cc2)CC1` (stereo not drawn) [Compound 9, 7-(4-fluoro-3-nitrobenzoyl)-1,3-dioxohexahydroimidazo[1,5-a]pyrazin-2(3H)-yl 4-(4-chlorophenethyl)piperidine-1-carboxylate], for which, in experiment [1], the “Anti-target(s) 1 μM” value was “ABHD6”, the “Anti-target(s) 10 μM” value was “FAAH,; also recorded: ABHD12,; also recorded: ABHD6” and the “Anti-target(s) 100 μM” value is listed as “FAAH,; also recorded: ABHD12,; also recorded: MAGL,; also recorded: ABHD6”. On LYPLA2, the inhibition at 1 µM worked out at 90%, the inhibition at 10 µM is 100% and the inhibition at 100 µM worked out at 100%. Further, on LYPLA1, the inhibition at 1 µM stood at 90%, the inhibition at 10 µM is 100% and the inhibition at 100 µM worked out at 100%.

On to `CN(C)c1ccc(C(=O)N2CCN3C(=O)N(OC(=O)N4CCC(CCc5ccc(Cl)cc5)CC4)C(=O)C3C2)cc1` (stereo not drawn) [Compound 10, 7-(4-(dimethylamino)benzoyl)-1,3-dioxohexahydroimidazo[1,5-a]pyrazin-2(3H)-yl4-(4-chlorophenethyl)piperidine-1-carboxylate], for which, on LYPLA2, the inhibition at 1 µM came to 75%, the inhibition at 10 µM was determined as 100% and the inhibition at 100 µM came out at 100%. Also, on LYPLA1, the inhibition at 1 µM was 75%, the inhibition at 10 µM is 100% and the inhibition at 100 µM worked out at 100%.

For `COc1ccc(C(=O)N2CCN3C(=O)N(OC(=O)N4CCC(CCc5ccc(Cl)cc5)CC4)C(=O)C3C2)cc1` (stereo not drawn) [Compound 11, 7-(4-methoxybenzoyl)-1,3-dioxohexahydroimidazo[1,5-a]pyrazin-2(3H)-yl 4-(4-chlorophenethyl)piperidine-1-carboxylate], in experiment [1], the “Anti-target(s) 1 μM” value is listed as “ABHD6”, the “Anti-target(s) 10 μM” value was “FAAH,; also recorded: ABHD12,; also recorded: MAGL,; also recorded: ABHD6” and the “Anti-target(s) 100 μM” value is on record as “FAAH,; also recorded: ABHD12,; also recorded: MAGL,; also recorded: ABHD6”. Moreover, at LYPLA2, the inhibition at 1 µM was found to be 90%, the inhibition at 10 µM was 100% and the inhibition at 100 µM turned out to be 100%. For the same molecule, on LYPLA1, the inhibition at 1 µM was determined as 90%, the inhibition at 10 µM is 100% and the inhibition at 100 µM amounted to 100%.

With `O=C(ON1C(=O)C2CN(CCc3ccccc3)CCN2C1=O)N1CCC(CCc2ccc(Cl)cc2)CC1` (stereo not drawn) [Compound 12, 1,3-dioxo-7-phenethylhexahydroimidazo[1,5-a]pyrazin-2(3H)-yl 4-(4-chlorophenethyl)piperidine-1-carboxylate], in experiment [1], the “Anti-target(s) 0.1 μM” value is “ABHD6”, the “Anti-target(s) 1 μM” value was “ABHD6”, the “Anti-target(s) 10 μM” value is “FAAH,; also recorded: ABHD4,; also recorded: MAGL,; also recorded: ABHD6” and the “Anti-target(s) 100 μM” value is “FAAH,; also recorded: ABHD4,; also recorded: MAGL,; also recorded: ABHD6”. Further, on LYPLA2, the inhibition at 0.1 µM worked out at 0%, the inhibition at 1 µM worked out at 25%, the inhibition at 10 µM turned out to be 95% and the inhibition at 100 µM stood at 100%. For the same molecule, on LYPLA1, the inhibition at 0.1 µM was determined as 0%, the inhibition at 1 µM stood at 25%, the inhibition at 10 µM came out at 95% and the inhibition at 100 µM was found to be 100%.

As for `CC(C)(C)OC(=O)N1CCN2C(=O)N(OC(=O)N3CCCCC3)C(=O)C2C1` (stereo not drawn) [Compound 14, tert-butyl 1,3-dioxo-2-(piperidine-1-carbonyloxy)hexahydroimidazo[1,5-a]pyrazine-7(1H)-carboxylate], in experiment [1], the “Anti-target(s) 0.1 μM” value was “ABHD6”, the “Anti-target(s) 1 μM” value is listed as “ABHD6”, the “Anti-target(s) 10 μM” value is reported as “ABHD6” and the “Anti-target(s) 100 μM” value is given as “APEH,; also recorded: ABHD6”. Also, on LYPLA2, the inhibition at 0.1 µM turned out to be 0%, the inhibition at 1 µM was 0%, the inhibition at 10 µM stood at 0% and the inhibition at 100 µM amounted to 25%. On LYPLA1, the inhibition at 0.1 µM turned out to be 0%, the inhibition at 1 µM was 0%, the inhibition at 10 µM came to 0% and the inhibition at 100 µM was found to be 25%.

In the case of `COC(=O)C1CCN(C(=O)ON2C(=O)C3CN(C(=O)OC(C)(C)C)CCN3C2=O)CC1` (stereo not drawn) [Compound 15, 1-(7-(tert-butoxycarbonyl)-1,3-dioxohexahydroimidazo[1,5-a]pyrazin-2(3H)-yl) 4-methyl piperidine-1,4-dicarboxylate], in experiment [1], the “Anti-target(s) 0.1 μM” value is recorded as “ABHD6”, the “Anti-target(s) 1 μM” value is reported as “ABHD6”, the “Anti-target(s) 10 μM” value is “ABHD6” and the “Anti-target(s) 100 μM” value is given as “ABHD6”. In addition, on LYPLA2, the inhibition at 0.1 µM was 0%, the inhibition at 1 µM came to 0%, the inhibition at 10 µM came out at 0% and the inhibition at 100 µM amounted to 25%. Further, at LYPLA1, the inhibition at 0.1 µM came to 0%, the inhibition at 1 µM came to 0%, the inhibition at 10 µM amounted to 0% and the inhibition at 100 µM turned out to be 25%.

On to `CC(C)(C)OC(=O)N1CCN2C(=O)N(OC(=O)N3CCOCC3Cc3ccccc3)C(=O)C2C1` (stereo not drawn) [Compound 16, 7-(tert-butoxycarbonyl)-1,3-dioxohexahydroimidazo[1,5-a]pyrazin-2(3H)-yl 3-benzylmorpholine-4-carboxylate], for which, in experiment [1], the “Anti-target(s) 0.1 μM” value is recorded as “none”, the “Anti-target(s) 1 μM” value is reported as “none”, the “Anti-target(s) 10 μM” value was “ABHD6” and the “Anti-target(s) 100 μM” value is “ABHD6”. At LYPLA2, the inhibition at 0.1 µM stood at 0%, the inhibition at 1 µM amounted to 0%, the inhibition at 10 µM was found to be 0% and the inhibition at 100 µM is 0%. Moreover, on LYPLA1, the inhibition at 0.1 µM stood at 0%, the inhibition at 1 µM is 0%, the inhibition at 10 µM was found to be 0% and the inhibition at 100 µM came to 0%.
